Here are results for four compounds from patent EP4667483A1, “HUMAN TRANSFERRIN RECEPTOR-BINDING PEPTIDE” (JCR Pharmaceuticals Co., Ltd., priority 2023, dated 2024).

Numbered stars: 1 amine (or outer) side, 2 acyl side, 3 side chain; on linkers, the order of the positions; unused ones are H or OH. Bridge positions count the residues as written; N and C are the ends. Square brackets hold non-standard residues; d marks the D form. Peptide text beside a SMILES is read from it. * marks the point of attachment. X2 = O=C([C@H](Cc1cn(CCO)c2ccccc12)N[*:1])[*:2]; Phe(3-COOH) = N[C@@H](Cc1cccc(C(=O)O)c1)C(=O)O; NH(CH2CH2O)8Me = COCCOCCOCCOCCOCCOCCOCCOCCN*; NMePhe(3-Cl) = CN[C@@H](Cc1cccc(Cl)c1)C(=O)O; 3Pal(6-NH2) = Nc1ccc(C[C@H](N)C(=O)O)cn1; NMeY = CN[C@@H](Cc1ccc(O)cc1)C(=O)O; Nva(3-Et) = CCC(CC)[C@H](N)C(=O)O; PEG4 = NCCOCCOCCOCCOCCC(=O)O; Carboxymethyl = O=C(O)C*

Holding throughout (type): binding
For assay [1], the target named is T1, human transferrin receptor (hTfR) (Homo sapiens, UniProt P02786). The assay can be described thus: SPR measurement under pH 7.4 conditions (Biacore T200, CM3 chip, hTfR captured by His Tag antibody). The following applies: SPR, pH 7.4; read-out: hTfR SPR pH7.4 KD. (Surface plasmon resonance follows binding to a sensor surface in real time, without labels.)
T1 sequence (P02786 whole entry): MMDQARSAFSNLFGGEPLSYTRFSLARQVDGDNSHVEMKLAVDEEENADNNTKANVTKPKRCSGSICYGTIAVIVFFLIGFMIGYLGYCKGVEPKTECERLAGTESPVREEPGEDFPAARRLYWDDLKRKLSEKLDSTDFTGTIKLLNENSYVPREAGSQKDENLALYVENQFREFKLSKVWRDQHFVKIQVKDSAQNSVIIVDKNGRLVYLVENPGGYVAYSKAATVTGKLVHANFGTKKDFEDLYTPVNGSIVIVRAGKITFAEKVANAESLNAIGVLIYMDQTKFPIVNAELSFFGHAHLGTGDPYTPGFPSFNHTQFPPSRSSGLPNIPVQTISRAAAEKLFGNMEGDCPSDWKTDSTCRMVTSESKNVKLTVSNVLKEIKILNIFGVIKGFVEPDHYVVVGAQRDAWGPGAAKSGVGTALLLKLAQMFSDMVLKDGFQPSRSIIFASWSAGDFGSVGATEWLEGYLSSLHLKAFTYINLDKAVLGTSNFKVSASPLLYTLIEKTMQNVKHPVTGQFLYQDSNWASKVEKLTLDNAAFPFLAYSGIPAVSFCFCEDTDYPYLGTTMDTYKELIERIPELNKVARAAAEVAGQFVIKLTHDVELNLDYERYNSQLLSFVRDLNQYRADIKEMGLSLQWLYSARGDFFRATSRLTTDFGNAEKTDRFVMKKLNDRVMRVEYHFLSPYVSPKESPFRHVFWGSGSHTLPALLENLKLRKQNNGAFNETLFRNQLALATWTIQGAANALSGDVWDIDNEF
Assay [2] addresses T1, human transferrin receptor (hTfR). Description: SPR measurement under pH 6.0 conditions (Biacore T200, NTA chip, immobilized hTfR). Particulars: SPR, pH 6.0; read-out: hTfR SPR pH6.0 KD.
For assay [3] the target is unchanged. Description: Evaluation of pH dependence (ratio of SPR koff or KD at pH 6.0 to pH 7.4). Particulars: ratio of koff at pH 6.0 to pH 7.4. Here is the method: The ratio of the calculated koff or KD values under pH 6.0 conditions to those under pH 7.4 conditions was calculated to check pH dependency.

As a reminder, the Kd is the concentration at which binding is half-saturated.

On to `CCC(CC)[C@@H]1NC(=O)[C@H](Cc2ccc(OCC(=O)O)cc2)NC(=O)[C@H](Cc2ccc(N)nc2)NC(=O)[C@H](CC(N)=O)NC(=O)[C@H](Cc2c[nH]c3ccccc23)NC(=O)[C@H](C(C)C)NC(=O)[C@H](Cc2cccc(Cl)c2)N(C)C(=O)[C@H](C(C)C)NC(=O)[C@H](C)NC(=O)CSC[C@@H](C(=O)NCCOCCOCCOCCOCCC(N)=O)NC(=O)[C@H](Cc2ccc(O)cc2)N(C)C(=O)[C@H](Cc2cccc(C(=O)O)c2)NC(=O)[C@H](CCCNC(=N)N)NC(=O)[C@H](CCC(=O)NCCOCCOCCOCCOCCOCCOCCOCCOC)NC(=O)[C@H]([C@@H](C)CC)NC1=O` [compound 82] ({CH2CO}-AV[NMePhe(3-Cl)]VWN[3Pal(6-NH2)]Y(Carboxymethyl)[Nva(3-Et)]IE(NH(CH2CH2O)8Me)R[Phe(3-COOH)][NMeY]C[PEG4]-NH2; thioether N-15), for which the Kd was found to be 0.0271 µM in assay [1] and 0.252 µM in assay [2]. The “dependency koff pH6.0/7.4” value in assay [3] is on record as 20.39.

On to `CC[C@H](C)[C@@H]1NC(=O)[C@H](Cc2ccc(OCC(=O)O)cc2)NC(=O)[C@H](Cc2ccc(O)cc2)NC(=O)[C@H](CC(N)=O)NC(=O)[C@H](Cc2cn(CCO)c3ccccc23)NC(=O)[C@H](C(C)C)NC(=O)[C@H](Cc2cccc(Cl)c2)N(C)C(=O)[C@H](C(C)C)NC(=O)[C@H](C)NC(=O)CSC[C@@H](C(=O)NCCOCCOCCOCCOCCC(N)=O)NC(=O)[C@H](Cc2ccc(O)cc2)N(C)C(=O)[C@H](Cc2cccc(C(=O)O)c2)NC(=O)[C@H](CCCNC(=N)N)NC(=O)[C@H](CCC(N)=O)NC(=O)[C@H]([C@@H](C)CC)NC1=O` [compound 73], for which the equilibrium dissociation constant (Kd) in assay [1] was determined as 0.00185 µM; in assay [2] it was 0.00478 µM. The “dependency koff pH6.0/7.4” value in assay [3] amounted to 7.54.

For the compound `CC[C@H](C)[C@@H]1NC(=O)[C@H](Cc2ccc(OCC(=O)O)cc2)NC(=O)[C@H](Cc2ccc(O)cc2)NC(=O)[C@H](CC(N)=O)NC(=O)[C@H](Cc2cn(CCO)c3ccccc23)NC(=O)[C@H](C(C)C)NC(=O)[C@H](Cc2cccc(Cl)c2)N(C)C(=O)[C@H](C(C)C)NC(=O)[C@H](C)NC(=O)CSC[C@@H](C(=O)NCCOCCOCCOCCOCCC(N)=O)NC(=O)[C@H](Cc2ccc(O)cc2)N(C)C(=O)[C@H](Cc2cccc(C(=O)O)c2)NC(=O)[C@H](CCCNC(=N)N)NC(=O)[C@H](CCC(N)=O)NC(=O)[C@H]([C@@H](C)O)NC1=O` [compound 76] ({CH2CO}-AV[NMePhe(3-Cl)]V[X2]NYY(Carboxymethyl)ITQR[Phe(3-COOH)][NMeY]C[PEG4]-NH2; thioether N-15), the dissociation constant (Kd) came out at 0.013 µM in assay [1] and 0.017 µM in assay [2]. Moreover, the “dependency koff pH6.0/7.4” value in assay [3] worked out at 3.37.

Regarding `CC[C@H](C)[C@@H]1NC(=O)[C@H](Cc2ccc(OCC(=O)O)cc2)NC(=O)[C@H](Cc2ccc(O)cc2)NC(=O)[C@H](CC(N)=O)NC(=O)[C@H](Cc2c[nH]c3ccccc23)NC(=O)[C@H](C(C)C)NC(=O)[C@H](Cc2cccc(Cl)c2)N(C)C(=O)[C@H](C(C)C)NC(=O)[C@H](C)NC(=O)CSC[C@@H](C(=O)NCCOCCOCCOCCOCCC(N)=O)NC(=O)[C@H](Cc2ccc(O)cc2)N(C)C(=O)[C@H](Cc2cccc(C(=O)O)c2)NC(=O)[C@H](CCCNC(=N)N)NC(=O)[C@H](CCC(N)=O)NC(=O)[C@H]([C@@H](C)CC)NC1=O` [compound 72] ({CH2CO}-AV[NMePhe(3-Cl)]VWNYY(Carboxymethyl)IIQR[Phe(3-COOH)][NMeY]C[PEG4]-NH2; thioether N-15), the Kd in assay [1] came out at 0.00334 µM. For the same compound, in assay [3], the “dependency koff pH6.0/7.4” value worked out at 5.72.
